The values below come from paper PMC8880385 (Pharmaceuticals, 2022).

What is called inhibition is the drop in the measured response relative to a control, in per cent. A word on the IC50: it is the concentration needed to halve the response being measured. By Papp A→B is commonly meant how fast a substance crosses the layer from the apical side. A low value points to slow passage. What is called Papp B→A is the apparent permeability from the basolateral to the apical side of a cell layer.

For series [1], the system named is Brugia pahangi adult females. Description: In vitro motility assay with adult female Brugia pahangi (Worminator). To be noted: for inhibition at 1 µM / IC50: Brugia pahangi, 72 h; for inhibition at 1 µM: read-out: Brugia Adult Females Inhibition of Motility Day 3 @ 1 µM, 1 µM, Day 3; for IC50: read-out: Brugia Adult Females Inhibition of Motility Day 3 IC50.
Series [2] relates to O. ochengi adult males. Description: O. ochengi adult male motility assay. Format: cell-based. To be noted: Onchocerca ochengi, 120 h; for IC50: read-out: O. ochengi Adult Males Inhibition of Motility Day 5 IC50; for inhibition at 10 µM: single concentration 10 µM, read-out: O. ochengi Adult Males Inhibition of Motility Day 5. The source says:
(§1) As humans are the only hosts for O. volvulus which are unavailable for screening, drug discovery relies on the surrogate filarial parasites Brugia spp. and cattle Onchocerca spp. Prioritized compounds from the Brugia worm screens were further tested with female and male adult O. ochengi as well as O. ochengi and L. loa mf.
(§2) For these assays, O. ochengi adults were extracted from the subcutaneous nodules of infected cow skins purchased from the local slaughterhouse (Douala, Littoral Region, Cameroon) and incubated in 4 mL complete culture media comprised of RPMI-1640 (Sigma-Aldrich), 5% newborn calf serum, 200 units/mL penicillin, 200 μg/mL streptomycin and 2.5 μg/mL amphotericin B (Sigma-Aldrich) in 12-well plates overnight to validate sterility prior to the assays. Four to eight O. ochengi adult masses were treated individually the following day with a serial dilution of each compound, and controls were treated with 1% DMSO. While in culture, the male worms normally egress from the nodules into the surrounding media and thus can be monitored in parallel for motility. The O. ochengi adult masses were incubated at 37 °C with 5% CO2 for the duration of the assay. Male motility within each well was visually scored every day and over 5 days after compound addition, and female viability within the nodules was assessed by MTT after 7 days as previously described. The O. ochengi adult masses containing female worms were individually placed in wells of a 48-well plate with 0.5 mL of 0.5 mg/mL MTT in PBS and incubated at 37 °C for 30 min. Female viability was visually rated by the degree of formazan production (live worms have blue coloration) in the female worm within the treated nodule versus control worm masses. […] Prism 4.0 for Windows was used to calculate IC50s.

Series [3] deals with O. ochengi adult females. Description: O. ochengi adult female viability (MTT) assay. Format: cell-based. To be noted: Onchocerca ochengi, 168 h; Day 7, MTT; read-out: O. ochengi Adult Females Inhibition of Survival Day 7 IC50.
Excerpt: as §1
as §2, with “min.” for “min. Female viability was visually rated by the degree of formazan production (live worms have blue coloration) in the female worm within the treated nodule versus control worm masses.”

A short description of series [4]: in vitro. As to conditions: dog, MDCK-MDR1. The method, then:
Permeability assays were conducted using 5 µM of each test compound with digoxin as a control. […] electrical resistance was used to verify the integrity of the MDCK-MDR1 monolayer. After compound addition, plates were incubated at 37 °C with 5% CO2 for 1 h. Samples were analyzed by LC–MS/MS and net flux ratio was calculated using basal-to-apical and apical-to-basal permeability.

The test system of series [5] is O. volvulus pre-adult L5. Briefly: O. volvulus pre-adult (Ov L5) motility assay. The format is cell-based, Onchocerca volvulus. As to conditions: Onchocerca volvulus. As to the method:
O. volvulus adult male and female worms, which can only be obtained from infected individuals, are not readily accessible for ex vivo studies. Moreover, since there is no small animal model that can maintain infections by O. volvulus, a recently developed in vitro system was used to evaluate the macrofilaricidal effects on pre-adult worms. All compounds except for 04 were tested in this O. volvulus pre-adult/L5 motility and viability assay.
(§3) Briefly, Ov L3 larvae were cultured to the pre-adult/L5 stage in vitro as described by Voronin et al., 2019 [45]. Once larvae reached the L5 stage (after at least 70 days in culture), 8–10 Ov L5 were moved to new transwell inserts in a 24-well plate containing 0.5 mL Ov L4-CMS media seeded with a 3 × 10^4/well Human Umbilical Vein Endothelial Cells (HUVEC) monolayer. Duplicate wells were treated with 1 and/or 10 µM of compound. Ov L5 were exposed to compounds for 14 days (exchanged 50% of media with fresh compound every two days) and then cultured with new media without compound, exchanging 50% of media every 2–3 days, up to day 36. Control Ov L5 were treated with 0.05% DMSO. Concentrations were chosen based on activity in the B. pahangi female motility assay. Motility was assessed visually and ranked on a 0–100% scale every 2–3 days over the course of the assay. At the end of the motility assay, Ov L5 viability was measured by 3-(4,5-dimethylthiazol-2-yl)-2,5-diphenyltetrazolium bromide (MTT) assay. Ov L5 were incubated with 0.1% MTT in PBS at 37 °C for 1 h then visually inspected for blue coloration indicating MTT reduction. Worms were considered dead if <50% of the worm was stained blue, and worms were considered alive if >50% of the worm was stained blue.

Series [6] in a line: Gerbil liver microsome stability assay. Format: in vitro ADME. To be noted: for CLint: gerbil liver microsomes; for half-life at 1 µM: pH 7.4, 1 µM compound, 0.5 mg/mL microsomes, read-out: Gerbil Liver Microsome T1/2. As to the method: Microsomal stability was tested using 1 µM of each test compound in a 96-well plate containing 0.5 mg/mL gerbil liver microsomes, 1 mM NADPH and/or UDPGA with alamethicin in a buffer of 100 mM potassium phosphate with 3 mM magnesium chloride at pH 7.4. Verapamil was used as a positive control. Reactions were incubated at 37 °C, and 100% acetonitrile with 0.1% formic acid was added at 0, 15, 30 and 60 min timepoints to stop the reaction. Samples were then separated over a Waters Atlantis T3 dC18 reverse phase HPLC column with 0.1% formic acid in water and 0.1% formic acid in acetonitrile. Samples were analyzed using an AB Sciex API 4000 LC–MS/MS.
(Liver microsomes are vesicles of endoplasmic reticulum, rich in cytochrome P450 enzymes.)

The test system of series [7] is O. ochengi mf. Briefly: O. ochengi microfilariae motility assay. The format is cell-based, Onchocerca ochengi. As to conditions: 10 µM; for inhibition at 10 µM: Onchocerca ochengi, 120 h, Day 5. As to the method: (§4) To assess the effects of the compounds on O. ochengi mf, the mf were harvested from infected cow skin and cultured (10–15 mf per well) in 100 µL media in 96-well plates with a confluent feeder layer of monkey kidney epithelial cells (MK2) as previously described. […] All compounds were also counter-screened with L. loa mf collected from infected individuals with approval from the University of Buea (IRB approval # 964-19). Mf were separated from blood cells using a Percoll gradient as previously described and set up for assays (10–15 mf per well).

The test system of series [8] is Loa loa mf. Briefly: Loa loa microfilariae motility counter-screen. As to conditions: for inhibition at 10 µM: Loa loa, 120 h, Day 5. Format: cell-based. As to the method: as §4
Series [9] deals with O. volvulus pre-adult L5. Briefly: Ov L5 viability by endpoint MTT assay. The format is cell-based, Onchocerca volvulus. To be noted: 1 µM. As to the method: as §3, with “Concentrations were chosen based on activity in the B. pahangi female motility assay.” left out
Setting [10] is: Day 36 @ 1 µM, 14 days drug then washout.

As for `Cc1ccc2c(ccc(/C=C/c3cc(C)n(-c4ccccc4)c3C)[n+]2C)c1.[I-]` [Analog 02, 2-[(E)-2-(2,5-dimethyl-1-phenyl-1H-pyrrol-3-yl)ethenyl]-1,6-dimethylquinolin-1-ium iodide], in series [1], the “Brugia Adult Females Inhibition of Motility Day 3 @ 1 µM” value is recorded as 83%, the inhibition at 1 µM is above 70%, the IC50 stood at 1 nM and the “Brugia Adult Females Inhibition of Motility Day 3 IC50” value is “sub-micromolar range”. The IC50 in series [2] is 3080 nM. Moreover, the IC50 in series [3] was 700 nM. In series [4], this compound came in with a Papp A→B of 0.1 ×10⁻⁶ cm/s and a Papp B→A of 51.2 ×10⁻⁶ cm/s. The same compound yielded an inhibition at 1 µM in series [5] (384 h, Day 16 @ 1 µM, assay stopped on day 16 (contamination)) of 90%. This compound also showed an inhibition at 1 µM in series [5] (setting [10]) above 90%. Moreover, in [6], the CLint is 541.8 µL/min/mg Protein and the half-life at 1 µM is 2.6 min. Besides, in [7], the “O. ochengi Mf Inhibition of Motility Day 5 @ 10 µM” value (“O. ochengi Mf Inhibition” for short) was “completely inhibited” and 10 µM produced 100% inhibition. Besides, in series [8], the “Loa loa Mf Inhibition of Motility Day 5 @ 10 µM” value (from here on “Loa loa Mf Inhibition”) is on record as “completely inhibited” and 10 µM produced 100% inhibition.

For the compound `Cc1c(/C=C/c2ccc3ccccc3[n+]2C)cnn1-c1ccccc1.[I-]` [Analog 03, 1-methyl-2-[(E)-2-(5-methyl-1-phenyl-1H-pyrazol-4-yl)ethenyl]quinolin-1-ium iodide], in [1], the inhibition at 1 µM worked out at 3%. Besides, in series [2], the IC50 was 1540 nM. Also, the IC50 in [3] worked out at 5180 nM. Also, in series [4], the Papp A→B is 1.3 ×10⁻⁶ cm/s and the Papp B→A amounted to 9.1 ×10⁻⁶ cm/s. This compound showed an inhibition at 10 µM in series [5] (672 h, Day 28 @ 10 µM) of 97%. In addition, in series [6], the CLint is given as 280.2 µL/min/mg Protein and the half-life at 1 µM worked out at 4.9 min. For the same compound, in series [7], the “O. ochengi Mf Inhibition” value is recorded as “little to no effect” and 10 µM produced 0% inhibition. Further, in series [8], the “Loa loa Mf Inhibition” value is “little to no effect” and the inhibition at 10 µM was 13%.

Take `C[n+]1c(/C=C/c2cnn(-c3ccccc3)c2)ccc2ccccc21.[I-]` [Analog 04, 1-methyl-2-[(E)-2-(1-phenyl-1H-pyrazol-4-yl)ethenyl]quinolin-1-ium iodide]: the inhibition at 1 µM in [1] was 26%. Moreover, the inhibition at 10 µM in series [2] worked out at 100%. Moreover, in [7], the “O. ochengi Mf Inhibition” value was “little to no effect” and testing at 10 µM gave an inhibition of 0%. Besides, in [8], the “Loa loa Mf Inhibition” value is on record as “little to no effect” and the inhibition at 10 µM is 38%.

Regarding `Cc1nn(-c2ccccc2)c(C)c1/C=C/c1ccc2ccccc2[n+]1C.[I-]` [Analog 05, 2-[(E)-2-(3,5-dimethyl-1-phenyl-1H-pyrazol-4-yl)ethenyl]-1-methylquinolin-1-ium iodide], in [1], the “Brugia Adult Females Inhibition of Motility Day 3 @ 1 µM” value is 81%, the inhibition at 1 µM is above 70%, the IC50 was found to be 405 nM and the “Brugia Adult Females Inhibition of Motility Day 3 IC50” value is reported as “sub-micromolar range”. Also, in [2], the inhibition at 10 µM is 86%. For the same compound, in [4], the Papp A→B was found to be 0.7 ×10⁻⁶ cm/s and the Papp B→A was 6.8 ×10⁻⁶ cm/s. The “O. volvulus L5 % inhibition of viability Day 37 (MTT assay)” value in series [9] came to 76%. This compound registered an inhibition at 1 µM in series [5] (setting [10]) above 90%. Besides, in series [6], the CLint amounted to 179.88 µL/min/mg Protein and the half-life at 1 µM amounted to 7.7 min. Besides, in series [7], the “O. ochengi Mf Inhibition” value is “little to no effect” and the inhibition at 10 µM worked out at 0%. In series [8], the “Loa loa Mf Inhibition” value is given as “little to no effect” and the inhibition at 10 µM was 38%.
